Assays:
[1] = tested on: fibroblasts of TAZ patients; experiment: Respiratory growth/proliferation of fibroblasts of TAZ patients (SRB, low glucose); type: cell-based, human; conditions: 96 hours; vs negative control DMSO
Description: EBS was tested for the effect thereof on the respiratory growth of fibroblasts of TAZ patients, as opposed to fibroblasts from eight different patients, carriers of mutations in the TAZ gene (suffering from Barth's syndrome).
The rate of proliferation was measured in a medium with a weak concentration of glucose (1 g/L; to force cells to use the OXPHOS system rather than glycolyse) in 384 well micro-titration plates (1200 cells/wells at T0) using the Sulforhodamine B (SRB) staining protocol at 24, 48, 72 or 96 hours after placing the cells with or without 12.15 nM of EBS.
The data are the average of 8 patients or 3 controls in triplicate, in 4 independent experiments.
The rate of proliferation was then measured under the same experimental conditions but with variable concentrations of ethaselen: The cells were analyzed 96 hours after treatment with increasing doses of ethaselen (from 150 pM to 26.1 μM). The bars represent the average of 4 replicates coming from 2 patients in 3 independent experiments.

mutant yeast strain taz1 = experiment: Halos test: respiratory growth of mutant yeast strain taz1 on non-fermentable solid medium; type: cell-based, Saccharomyces cerevisiae; conditions: 100 nmoles; compared with ebselen 100 nmoles; no halo with DMSO
From the text: C/ Effect (detected by the halos test) of ebselen oxide on the respiratory growth of the mutant yeast strain taz1 on non-fermentable solid medium, in comparison with ebselen (B) and DMSO (D)
As previously described (WO2020/254632), the different mutant yeast strains were spread over the solid respiratory agar-agar based media (containing glycerol or ethanol as the unique carbon source) and exposed to filters on which the compound tested, in particular ebselen (EBS) was deposited. The dishes were then incubated at the temperature indicated (that could be 28° C. or 36° C. depending on the strain used).
More precisely, 0.125 OD of mutant cells with exponential growth were spread homogeneously with sterile glass beads in a square Petri dish (12 cm×12 cm) containing a solid respiratory medium (YPA Ethanol, 1% yeast extract, 0.5% Bacto Peptone, 40 mg/L Adenine, 2% Ethanol for sym1 and taz1; or YPA Glycerol 2% for cox2, fmc1, atp6, shy1 et A29G). […] On each dish, the DMSO (buffer) was used as negative control (upper left-hand filter). The dishes were then incubated at 28° C. (for shy1) or 36° C. (for cox2, sym1, fmc1, atp6 taz1 and A29G) for 4 to 5 days, then photographed. The improvement of the growth was evaluated after a plurality of days of incubation by the appearance of a halo of improved growth around the filter where the active ingredient was deposited.

Row | Compound | concentration range improving respiratory growth/proliferation, lower limit [1] | concentration range improving respiratory growth/proliferation, upper limit [1] | respiratory growth (halo) of mutant taz1 (mutant yeast strain taz1)
1 | O=c1c2ccccc2[se]n1CCn1[se]c2ccccc2c1=O [ethasalen, Ethaselen] | about 1 nM | ≤ 3 µM | –
2 | O=C1c2ccccc2[Se](=O)N1c1ccccc1 (stereo not drawn) [ebselen oxide, 1-oxide-2-phenyl-1,2-benzisoselenazol-3(2H)-one] | – | – | activity comparable to ebselen

From US20260000645A1, “USE OF EBSELEN OR ONE OF THE DERIVATIVES THEREOF TO TREAT MITOCHONDRIAL PATHOLOGIES OR DYSFUNCTIONS” (ASSOCIATION FRANCAISE CONTRE LES MYOPATHIES, priority 2022, published 2026)
